# Measurements from ChEMBL document CHEMBL1151310, “Inhibition of cAMP-phosphodiesterase by biflavones of Ginkgo biloba in rat adipose tissue” (J Nat Prod, 1998).
# Tests used:
# Assay type in all cases: tissue-based
# [1] = organism: Rattus norvegicus; experiment: Inhibition of PDE in Sprague-Dawley rat epididymal adipose tissue assessed as [14C]adenosine recovery at 100 uM by liquid scintillation counting
# [2] = organism: Rattus norvegicus; experiment: (§1) Inhibition of PDE in Sprague-Dawley rat epididymal adipose tissue assessed as [14C]adenosine recovery by liquid scintillation counting; conditions: dose or concentration not given here
# [3] = as §1
# [4] = organism: Rattus norvegicus; experiment: Inhibition of PDE in Sprague-Dawley rat epididymal adipose tissue assessed as [14C]adenosine recovery at 1 mM by liquid scintillation counting
# [5] = organism: Rattus norvegicus; experiment: Inhibition of PDE in Sprague-Dawley rat epididymal adipose tissue assessed as [14C]adenosine recovery at 3.6 uM by liquid scintillation counting
# [6] = organism: Rattus norvegicus; experiment: Inhibition of PDE in Sprague-Dawley rat epididymal adipose tissue assessed as [14C]adenosine recovery at 0.05 to 3 ug/ml by liquid scintillation counting
# [7] = organism: Rattus norvegicus; experiment: Inhibition of PDE in Sprague-Dawley rat epididymal adipose tissue assessed as [14C]adenosine recovery at 200 uM by liquid scintillation counting
compound,measurement,setting,value
COc1ccc(Cc2nccc3cc(OC)c(OC)cc23)cc1OC,inhibition,[1],> 90%
COc1ccc(-c2cc(=O)c3c(O)cc(O)cc3o2)cc1-c1c(O)cc(O)c2c(=O)cc(-c3ccc(O)cc3)oc12 [BILOBETIN],inhibition,[2],84%
same,IC50,[3],0.36 µM
Cn1c(=O)c2[nH]cnc2n(C)c1=O,inhibition,[4],> 90%
COc1cc(O)c2c(=O)cc(-c3ccc(O)c(-c4c(O)cc(O)c5c(=O)cc(-c6ccc(O)cc6)oc45)c3)oc2c1 [SEQUOIAFLAVONE],inhibition,[5],94%
same,IC50,[3],1.01 µM
O=c1cc(-c2ccc(O)c(-c3c(O)cc(O)c4c(=O)cc(-c5ccc(O)cc5)oc34)c2)oc2cc(O)cc(O)c12 [AMENTOFLAVONE],inhibition,[2],85%
same,IC50,[3],0.27 µM
COc1ccc(-c2cc(=O)c3c(O)cc(O)c(-c4cc(-c5cc(=O)c6c(O)cc(OC)cc6o5)ccc4OC)c3o2)cc1,inhibition,[6],10%
O=c1c(O)c(-c2ccc(O)cc2)oc2cc(O)cc(O)c12,inhibition,[7],> 90%
